Test results: ChEMBL document CHEMBL3745645, “Synthesis, in vitro antitumor activity, dihydrofolate reductase inhibition, DNA intercalation and structure-activity relationship studies of 1,3,5-triazine analogues” (Bioorg Med Chem Lett, 2016)
Calls of active or inactive are those of the source. The rule behind the calls is not given here.

Assays:
[1] = system: MCF7; assay: Cytotoxicity against human MCF7 cells at 10 uM after 48 hrs by SRB assay; assay type: functional; conditions: MCF7, 48 h, read-out: GI
[2] = system: SK-MEL-5; assay: Cytotoxicity against human SK-MEL-5 cells at 10 uM after 48 hrs by SRB assay; assay type: functional; conditions: SK-MEL-5, 48 h, read-out: GI
[3] = Cytotoxicity against human PC3 cells at 10 uM after 48 hrs by SRB assay; assay type: functional; conditions: PC-3, 48 h, read-out: GI
[4] = system: Calf thymus DNA; assay: Binding affinity to calf thymus DNA assessed as melting temperature by spectrophotometric analysis (reference value: 60 degC); assay type: nucleic-acid assay; conditions: Bos taurus
[5] = Cytotoxicity against human HOP92 cells at 10 uM after 48 hrs by SRB assay; assay type: functional; conditions: HOP-92, 48 h, read-out: GI
[6] = system: MDA-MB-231; assay: Cytotoxicity against human MDA-MB-231 cells at 10 uM after 48 hrs by SRB assay; assay type: functional; conditions: MDA-MB-231, 48 h, read-out: GI
[7] = (§1) Cytotoxicity against human OVCAR4 cells at 10 uM after 48 hrs by SRB assay; assay type: functional; conditions: OVCAR-4, 48 h, read-out: GI
[8] = Cytotoxicity against human MOLT4 cells after 48 hrs by SRB assay; assay type: functional; conditions: MOLT-4, 48 h, read-out: LC50 (the source's name)
[9] = Cytotoxicity against human OVCAR3 cells at 10 uM after 48 hrs by SRB assay; assay type: functional; conditions: OVCAR-3, 48 h, read-out: GI
[10] = system: SF-295; assay: (§2) Cytotoxicity against human SF295 cells at 10 uM after 48 hrs by SRB assay; assay type: functional
[11] = system: UACC-257; assay: (§3) Cytotoxicity against human UACC257 cells at 10 uM after 48 hrs by SRB assay; assay type: functional
[12] = Cytotoxicity against human HL-60(TB) cells after 48 hrs by SRB assay; assay type: functional; conditions: HL-60, 48 h, read-out: LC50 (the source's name)
[13] = system: NCI-H460; assay: Cytotoxicity against human NCI-H460 cells at 10 uM after 48 hrs by SRB assay; assay type: functional; conditions: NCI-H460, 48 h, read-out: GI
[14] = system: HCT-15; assay: (§4) Cytotoxicity against human HCT15 cells at 10 uM after 48 hrs by SRB assay; assay type: functional
[15] = system: MCF7; assay: Cytotoxicity against human MCF7 cells after 48 hrs by SRB assay; assay type: functional; conditions: MCF7, 48 h, pooled result: one value given for 6 cell lines, strains, targets or settings
[16] = system: A549; assay: Cytotoxicity against human A549 cells at 10 uM after 48 hrs by SRB assay; assay type: functional; conditions: A549, 48 h, read-out: GI
[17] = system: SR; assay: Cytotoxicity against human SR cells after 48 hrs by SRB assay; assay type: functional
[18] = Cytotoxicity against human IGROV1 cells at 10 uM after 48 hrs by SRB assay; assay type: functional; conditions: IGROV-1, 48 h, read-out: GI
[19] = Cytotoxicity against human DU145 cells at 10 uM after 48 hrs by SRB assay; assay type: functional; conditions: DU-145, 48 h, read-out: GI
[20] = Cytotoxicity against human SNB75 cells at 10 uM after 48 hrs by SRB assay; assay type: functional; conditions: SNB-75, 48 h, read-out: GI
[21] = (§5) Cytotoxicity against human HCC2998 cells at 10 uM after 48 hrs by SRB assay; assay type: functional; conditions: HCC 2998, 48 h, read-out: GI
[22] = system: NCI-H23; assay: Cytotoxicity against human NCI-H23 cells at 10 uM after 48 hrs by SRB assay; assay type: functional; conditions: NCI-H23, 48 h, read-out: GI
[23] = system: KM12; assay: Cytotoxicity against human KM12 cells at 10 uM after 48 hrs by SRB assay; assay type: functional; conditions: KM12, 48 h, read-out: GI
[24] = system: NCI-H226; assay: Cytotoxicity against human NCI-H226 cells at 10 uM after 48 hrs by SRB assay; assay type: functional; conditions: NCI-H226, 48 h, read-out: GI
[25] = Cytotoxicity against human TK10 cells at 10 uM after 48 hrs by SRB assay; assay type: functional; conditions: TK-10, 48 h, read-out: GI
[26] = system: CCRF-CEM; assay: Cytotoxicity against human CCRF-CEM cells at 10 uM after 48 hrs by SRB assay; assay type: functional; conditions: for inhibition of growth at 10 µM: read-out: GI
[27] = Cytotoxicity against human IGROV1 cells after 48 hrs by SRB assay; assay type: functional; conditions: IGROV-1, 48 h, pooled result: one value given for 7 cell lines, strains, targets or settings
[28] = system: K562; assay: Cytotoxicity against human K562 cells at 10 uM after 48 hrs by SRB assay; assay type: functional; conditions: K562, 48 h, read-out: GI
[29] = system: UACC-62; assay: (§6) Cytotoxicity against human UACC62 cells at 10 uM after 48 hrs by SRB assay; assay type: functional
[30] = system: Malme-3M; assay: Cytotoxicity against human MALME-3M cells at 10 uM after 48 hrs by SRB assay; assay type: functional; conditions: for inhibition of growth at 10 µM: read-out: GI
[31] = Cytotoxicity against human BT549 cells at 10 uM after 48 hrs by SRB assay; assay type: functional; conditions: BT-549, 48 h, read-out: GI
[32] = system: CCRF-CEM; assay: Cytotoxicity against human CCRF-CEM cells after 48 hrs by SRB assay; assay type: functional; conditions: for GI50 / TGI: pooled result: one value given for 6 cell lines, strains, targets or settings
[33] = (§7) Cytotoxicity against human RPMI8226 cells at 10 uM after 48 hrs by SRB assay; assay type: functional; conditions: RPMI-8226, 48 h, read-out: GI
[34] = system: NCI-H522; assay: Cytotoxicity against human NCI-H522 cells at 10 uM after 48 hrs by SRB assay; assay type: functional; conditions: NCI-H522, 48 h, read-out: GI
[35] = system: OVCAR-4; assay: as §1; assay type: functional
[36] = as §2; assay type: functional; conditions: SF-295, 48 h, read-out: GI
[37] = as §4; assay type: functional; conditions: HCT-15, 48 h, read-out: GI
[38] = system: HCC 2998; assay: as §5; assay type: functional
[39] = as §6; assay type: functional; conditions: UACC-62, 48 h, read-out: GI
[40] = system: MOLT-4; assay: Cytotoxicity against human MOLT4 cells at 10 uM after 48 hrs by SRB assay; assay type: functional
[41] = as §3; assay type: functional; conditions: UACC-257, 48 h, read-out: GI
[42] = system: HL-60(TB); assay: Cytotoxicity against human HL-60(TB) cells at 10 uM after 48 hrs by SRB assay; assay type: functional
[43] = system: SK-MEL-2; assay: Cytotoxicity against human SK-MEL-2 cells at 10 uM after 48 hrs by SRB assay; assay type: functional; conditions: SK-MEL-2, 48 h, read-out: GI
[44] = Cytotoxicity against human NCI-ADR-RES cells at 10 uM after 48 hrs by SRB assay; assay type: functional; conditions: read-out: GI
[45] = system: RPMI-8226; assay: as §7; assay type: functional

Compound: Cc1nc2ccc(Nc3nc(NCCN4CCOCC4)nc(Nc4ccc(F)cc4)n3)cc2n1Cc1ccccc1
- inhibition of growth at 10 µM [1]: 66.4%
- inhibition of growth at 10 µM [2]: 85.8%
- inhibition of growth at 10 µM [3]: 28.5%
- Tm [4]: 80.1 °C
- inhibition of growth at 10 µM [5]: 69.7%
- inhibition of growth at 10 µM [6]: 66.7%
- inhibition of growth at 10 µM [7]: 1.85%
- CC50 [8]: 55 µM
- inhibition of growth at 10 µM [9]: 26.3%
- growth inhibition (GI) [10]: Active
- growth inhibition (GI) [11]: Active
- CC50 [12]: 55 µM
- inhibition of growth at 10 µM [13]: 70.6%
- growth inhibition (GI) [14]: Active
- GI50 [15]: 2.04 µM
- LC50 (concentration killing 50% of cells) [15]: 20.6 µM
- TGI [15]: 8.99 µM
- inhibition of growth at 10 µM [16]: 53.7%
- LC50 (concentration killing 50% of cells) [17]: 55 µM
- inhibition of growth at 10 µM [18]: 31%
- inhibition of growth at 10 µM [19]: 40.8%
- inhibition of growth at 10 µM [20]: 49.4%
- inhibition of growth at 10 µM [21]: 55.4%
- inhibition of growth at 10 µM [22]: 33%
- inhibition of growth at 10 µM [23]: 56.6%
- inhibition of growth at 10 µM [24]: 27.9%
- inhibition of growth at 10 µM [25]: 39.4%
- inhibition of growth at 10 µM [26]: 70.5%
- GI50 [27]: 4.01 µM
- LC50 (concentration killing 50% of cells) [27]: 62.3 µM
- TGI [27]: 27.4 µM
- inhibition of growth at 10 µM [28]: 97%
- growth inhibition (GI) [29]: Active
- growth inhibition (GI) [30]: Active
- inhibition of growth at 10 µM [31]: 50.1%
- LC50 [32]: 55 µM
- GI50 [32]: 1.96 µM
- TGI [32]: 6.82 µM
- inhibition of growth at 10 µM [33]: 96.9%
- inhibition of growth at 10 µM [34]: 41.3%

Compound: Cc1nc2ccc(Nc3nc(Cl)nc(Nc4ccc(F)cc4)n3)cc2n1Cc1ccccc1
- inhibition of growth at 10 µM [1]: 37.4%
- inhibition of growth at 10 µM [2]: 30.8%
- inhibition of growth at 10 µM [3]: 19.2%
- Tm [4]: 57 °C
- inhibition of growth at 10 µM [5]: 21.2%
- inhibition of growth at 10 µM [6]: 25.9%
- growth inhibition (GI) [35]: inactive
- CC50 [8]: > 100 µM
- inhibition of growth at 10 µM [9]: 5.09%
- inhibition of growth at 10 µM [36]: 21.8%
- growth inhibition (GI) [11]: inactive
- CC50 [12]: > 100 µM
- inhibition of growth at 10 µM [13]: 20.1%
- inhibition of growth at 10 µM [37]: 44.2%
- GI50 [15]: 4.21 µM
- LC50 (concentration killing 50% of cells) [15]: 75.8 µM
- TGI [15]: 11.9 µM
- inhibition of growth at 10 µM [16]: 23.8%
- LC50 (concentration killing 50% of cells) [17]: > 100 µM
- inhibition of growth at 10 µM [18]: 33.3%
- inhibition of growth at 10 µM [19]: 5.78%
- inhibition of growth at 10 µM [20]: 4.24%
- growth inhibition (GI) [38]: inactive
- inhibition of growth at 10 µM [22]: 11.8%
- inhibition of growth at 10 µM [23]: 27.2%
- inhibition of growth at 10 µM [24]: 26.8%
- inhibition of growth at 10 µM [25]: 7.64%
- inhibition of growth at 10 µM [26]: 77.1%
- GI50 [27]: 8.1 µM
- LC50 (concentration killing 50% of cells) [27]: 78.8 µM
- TGI [27]: 29.8 µM
- inhibition of growth at 10 µM [28]: 63.1%
- inhibition of growth at 10 µM [39]: 48.6%
- inhibition of growth at 10 µM [30]: 11.5%
- inhibition of growth at 10 µM [31]: 39.8%
- LC50 [32]: > 100 µM
- GI50 [32]: 3.34 µM
- TGI [32]: 8.68 µM
- inhibition of growth at 10 µM [33]: 87.5%
- inhibition of growth at 10 µM [34]: 77.5%

Compound: COc1ccc(-c2nc(Nc3ccc(F)cc3)nc(Nc3ccc4c(c3)nc(C)n4Cc3ccccc3)n2)cc1
- inhibition of growth at 10 µM [1]: 77.4%
- growth inhibition (GI) [40]: Active
- inhibition of growth at 10 µM [2]: 52.9%
- Tm [4]: 67.5 °C
- inhibition of growth at 10 µM [5]: 60.3%
- inhibition of growth at 10 µM [6]: 68.8%
- inhibition of growth at 10 µM [7]: 57.4%
- CC50 [8]: > 100 µM
- inhibition of growth at 10 µM [9]: 49.5%
- inhibition of growth at 10 µM [36]: 51%
- inhibition of growth at 10 µM [41]: 56.2%
- CC50 [12]: > 100 µM
- inhibition of growth at 10 µM [13]: 69.7%
- inhibition of growth at 10 µM [37]: 66.6%
- GI50 [15]: 3.6 µM
- LC50 (concentration killing 50% of cells) [15]: > 100 µM
- TGI [15]: 23.4 µM
- inhibition of growth at 10 µM [16]: 68%
- LC50 (concentration killing 50% of cells) [17]: > 100 µM
- inhibition of growth at 10 µM [18]: 63.6%
- inhibition of growth at 10 µM [19]: 45.3%
- growth inhibition (GI) [42]: Active
- inhibition of growth at 10 µM [20]: 32%
- inhibition of growth at 10 µM [21]: 54.5%
- inhibition of growth at 10 µM [23]: 74%
- inhibition of growth at 10 µM [24]: 33.4%
- inhibition of growth at 10 µM [43]: 51.8%
- inhibition of growth at 10 µM [25]: 25.1%
- growth inhibition (GI) [26]: Active
- inhibition of growth at 10 µM [44]: 73.4%
- GI50 [27]: 4.79 µM
- LC50 (concentration killing 50% of cells) [27]: > 100 µM
- TGI [27]: 40.5 µM
- inhibition of growth at 10 µM [28]: 83.4%
- inhibition of growth at 10 µM [30]: 47.2%
- inhibition of growth at 10 µM [31]: 29.3%
- LC50 [32]: > 100 µM
- GI50 [32]: 3.37 µM
- TGI [32]: 67.9 µM
- growth inhibition (GI) [45]: Active
- inhibition of growth at 10 µM [34]: 44.6%
